In patent US20060069132A1, “Azolecarboxamide herbicides” (priority 2004, published 2006):

Tests used:
morningglory [1] = assay: Test C pre-/postemergence herbicide test; assay type: in vivo, Ipomoea coccinea; parameters: key to Plant response rating, Morningglory: 0 = no effect, 100 = complete control; conditions: for Morningglory plant response rating: 500 g ai/ha
How it was run: (§1)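 Pre- and postemergence application, solvent/surfactant formulation; post at 1- to 4-leaf stage (2–18 cm). Greenhouse 12–14 d. Visual rating vs controls, 0 = no effect, 100 = complete control.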

redroot pigweed = assay: Test A pre-/postemergence herbicide test; assay type: in vivo, Amaranthus retroflexus; conditions: for Plant response rating, Pigweed: Postemergence; for Pigweed plant response rating: Preemergence
How it was run: (§2)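 Visual injury rating on a 0–100 scale (0 no effect, 100 complete control) versus untreated controls, about ten days after treatment in greenhouse. Pre: directed soil spray onto seeded sandy loam. Post: spray to runoff on plants 2–10 cm tall at one- to two-leaf stage.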

velvetleaf = assay: Test C pre-/postemergence herbicide test; assay type: in vivo, Abutilon theophrasti; conditions: for Velvetleaf plant response rating: 500 g ai/ha
How it was run: as §1

bermudagrass = assay: Test C pre-/postemergence herbicide test; assay type: in vivo, Cynodon dactylon
How it was run: as §1

[2] = system: smallflower umbrella sedge; assay: Test C flooded paddy test; assay type: in vivo, Cyperus difformis; conditions: for Plant response rating, Sedge, Umbrella: visual rating after 12 to 14 days
common ragweed = assay: Test C pre-/postemergence herbicide test; assay type: in vivo, Ambrosia elatior; parameters: key to Plant response rating, Ragweed: 0 = no effect, 100 = complete control; conditions: for Ragweed plant response rating: 500 g ai/ha
How it was run: as §1

morningglory [3] = assay: Test A pre-/postemergence herbicide test; assay type: in vivo, Ipomoea spp.; conditions: for Plant response rating, Morningglory: Postemergence; for Morningglory plant response rating: Preemergence
How it was run: as §2

rice = assay: Test C flooded paddy test; assay type: in vivo, Oryza sativa; conditions: for Plant response rating, Rice: visual rating after 12 to 14 days
How it was run: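 Injury scored visually against controls on a 0 (no effect) to 100 (complete control) scale, 12 to 14 days after treatment in greenhouse. Flooded paddy plants treated at 2-leaf stage; postemergence plants at 1- to 4-leaf stage, 2 to 18 cm tall.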

large crabgrass = assay: Test C pre-/postemergence herbicide test; assay type: in vivo, Digitaria sanguinalis; conditions: for Crabgrass, Large plant response rating: 500 g ai/ha
How it was run: as §1

lambsquarters = assay: Test C pre-/postemergence herbicide test; assay type: in vivo, Chenopodium album; conditions: for Lambsquarters plant response rating: 500 g ai/ha
How it was run: as §1

barnyardgrass = assay: Test A pre-/postemergence herbicide test; assay type: in vivo, Echinochloa crus-galli; conditions: for Plant response rating, Barnyardgrass: Postemergence; for Barnyardgrass plant response rating: Preemergence
How it was run: as §2

giant foxtail = assay: Test C pre-/postemergence herbicide test; assay type: in vivo, Setaria faberi; conditions: for Foxtail, Giant plant response rating: 500 g ai/ha
How it was run: as §1

[4] = 125 g ai/ha, scale 0 (no effect) to 100 (complete control), visual, 12 to 14 days, preemergence
[5] = 250 g ai/ha, scale 0 to 100 (0 no effect, 100 complete control), visual, 12 to 14 days, preemergence
[6] = Postemergence, 250 g ai/ha, scale 0 to 100, 0 no effect, 100 complete control
[7] = Preemergence, scale 0 to 100, 0 no effect, 100 complete control
[8] = postemergence, 62 g ai/ha, scale 0 to 100
[9] = 500 g ai/ha, 0 to 100 scale, 0 no effect, 100 complete control
[10] = 2000 g ai/ha, 0 to 100 scale, 0 no effect, 100 complete control
[11] = 500 g ai/ha, visual rating, 0 to 100 scale (0 no effect, 100 complete control)
[12] = Postemergence, 500 g ai/ha, scale 0 to 100
[13] = Preemergence, 500 g ai/ha, scale 0 to 100, 0 no effect, 100 complete control
[14] = 62 g ai/ha, scale 0 to 100 (0 no effect, 100 complete control)
[15] = 125 g ai/ha, scale of 0 to 100, 0 is no effect, 100 is complete control
[16] = 250 g ai/ha, scale 0 to 100 (0 no effect, 100 complete control)
[17] = 500 g ai/ha, scale 0 to 100 (0 no effect, 100 complete control)
[18] = Postemergence, 125 g ai/ha, scale 0 to 100, 0 no effect, 100 complete control
[19] = 250 g ai/ha, scale of 0 to 100, 0 is no effect, 100 is complete control

C#CCNC(=O)c1cccc(NC(=O)c2cc(C(C)(C)C)nn2CC)c1 [Compound 47]
Plant response rating (0 = no effect, 100 = complete control), Morningglory (morningglory [1]; 62 g ai/ha, preemergence): 0 | Plant response rating, Morningglory (morningglory [1]; [4]): 0 | Plant response rating, Morningglory (morningglory [1]; [5]): 90 | Morningglory plant response rating (morningglory [1]; Postemergence, scale 0 to 100): 90 | Plant response rating, Morningglory (morningglory [1]; [6]): 70 | Morningglory plant response rating (morningglory [1]; [7]): 90 | Plant response rating, Morningglory (morningglory [1]; [8]): 50 | Plant response rating, Pigweed (redroot pigweed; [9]): 100 | Plant response rating, Pigweed (redroot pigweed; [10]): 100 | Pigweed plant response rating (redroot pigweed; [11]): 100 | Pigweed plant response rating (redroot pigweed; [10]): 100 | Plant response rating (0 = no effect, 100 = complete control), Velvetleaf (velvetleaf; 62 g ai/ha, preemergence): 40 | Plant response rating, Velvetleaf (velvetleaf; [4]): 40 | Plant response rating, Velvetleaf (velvetleaf; [5]): 100 | Velvetleaf plant response rating (velvetleaf; Postemergence, scale 0 to 100): 90 | Plant response rating, Velvetleaf (velvetleaf; [6]): 80 | Velvetleaf plant response rating (velvetleaf; [7]): 100 | Plant response rating, Velvetleaf (velvetleaf; [8]): 80 | Plant response rating (0 = no effect, 100 = complete control), Bermudagrass (bermudagrass; 62 g ai/ha, preemergence): 90 | Plant response rating, Bermudagrass (bermudagrass; [4]): 100 | Plant response rating, Bermudagrass (bermudagrass; [5]): 100 | Bermudagrass plant response rating (bermudagrass; [12]): 60 | Bermudagrass plant response rating (bermudagrass; [13]): 100 | Plant response rating, Bermudagrass (bermudagrass; [8]): 60 | Sedge, Umbrella plant response rating [2, 14]: 30 | Sedge, Umbrella plant response rating [2, 15]: 70 | Plant response rating, Sedge, Umbrella [2, 16]: 80 | Plant response rating, Sedge, Umbrella [2, 17]: 80 | Plant response rating (0 = no effect, 100 = complete control), Ragweed (common ragweed; 62 g ai/ha, preemergence): 80 | Plant response rating, Ragweed (common ragweed; [4]): 80 | Plant response rating, Ragweed (common ragweed; [5]): 100 | Ragweed plant response rating (common ragweed; Postemergence, scale 0 to 100): 90 | Plant response rating, Ragweed (common ragweed; [6]): 80 | Ragweed plant response rating (common ragweed; [7]): 100 | Plant response rating, Ragweed (common ragweed; [8]): 70 | Plant response rating, Morningglory (morningglory [3]; [9]): 20 | Plant response rating, Morningglory (morningglory [3]; [10]): 25 | Morningglory plant response rating (morningglory [3]; [11]): 20 | Morningglory plant response rating (morningglory [3]; [10]): 30 | Rice plant response rating (rice; [14]): 0 | Rice plant response rating (rice; [15]): 20 | Plant response rating, Rice (rice; [16]): 20 | Plant response rating, Rice (rice; [17]): 50 | Plant response rating (0 = no effect, 100 = complete control), Crabgrass, Large (large crabgrass; 62 g ai/ha, preemergence): 100 | Plant response rating, Crabgrass, Large (large crabgrass; [4]): 100 | Plant response rating, Crabgrass, Large (large crabgrass; [5]): 100 | Crabgrass, Large plant response rating (large crabgrass; Postemergence, scale 0 to 100): 90 | Crabgrass, Large plant response rating (large crabgrass; [7]): 100 | Plant response rating, Crabgrass, Large (large crabgrass; [8]): 90 | Plant response rating (0 = no effect, 100 = complete control), Lambsquarters (lambsquarters; 62 g ai/ha, preemergence): 100 | Plant response rating, Lambsquarters (lambsquarters; [4]): 100 | Plant response rating, Lambsquarters (lambsquarters; [5]): 100 | Lambsquarters plant response rating (lambsquarters; Postemergence, scale 0 to 100): 100 | Plant response rating, Lambsquarters (lambsquarters; [6]): 100 | Lambsquarters plant response rating (lambsquarters; [7]): 100 | Plant response rating, Lambsquarters (lambsquarters; [8]): 90 | Plant response rating, Barnyardgrass (barnyardgrass; [9]): 90 | Plant response rating, Barnyardgrass (barnyardgrass; [10]): 100 | Barnyardgrass plant response rating (barnyardgrass; [11]): 90 | Barnyardgrass plant response rating (barnyardgrass; [10]): 95 | Plant response rating (0 = no effect, 100 = complete control), Foxtail, Giant (giant foxtail; 62 g ai/ha, preemergence): 40 | Plant response rating, Foxtail, Giant (giant foxtail; [4]): 70 | Plant response rating, Foxtail, Giant (giant foxtail; [5]): 80 | Foxtail, Giant plant response rating (giant foxtail; Postemergence, scale 0 to 100): 70 | Plant response rating, Foxtail, Giant (giant foxtail; [18]): 60 | Plant response rating, Foxtail, Giant (giant foxtail; [6]): 60 | Foxtail, Giant plant response rating (giant foxtail; [7]): 90 | Plant response rating, Foxtail, Giant (giant foxtail; [8]): 60

CCNC(=O)c1cc(NC(=O)c2cc(C(C)(C)C)nn2CC)ccc1F [Compound 58]
Plant response rating (0 = no effect, 100 = complete control), Morningglory (morningglory [1]; 62 g ai/ha, preemergence): 10 | Plant response rating, Morningglory (morningglory [1]; [4]): 20 | Plant response rating, Morningglory (morningglory [1]; [5]): 50 | Morningglory plant response rating (morningglory [1]; Postemergence, scale 0 to 100): 20 | Plant response rating, Morningglory (morningglory [1]; [6]): 10 | Morningglory plant response rating (morningglory [1]; [7]): 80 | Plant response rating, Morningglory (morningglory [1]; [8]): 10 | Plant response rating, Pigweed (redroot pigweed; [9]): 70 | Plant response rating, Pigweed (redroot pigweed; [10]): 90 | Pigweed plant response rating (redroot pigweed; [11]): 100 | Pigweed plant response rating (redroot pigweed; [10]): 100 | Plant response rating, Velvetleaf (velvetleaf; [4]): 100 | Plant response rating, Velvetleaf (velvetleaf; [5]): 100 | Velvetleaf plant response rating (velvetleaf; Postemergence, scale 0 to 100): 60 | Plant response rating, Velvetleaf (velvetleaf; [6]): 35 | Velvetleaf plant response rating (velvetleaf; [7]): 100 | Plant response rating, Velvetleaf (velvetleaf; [8]): 10 | Plant response rating (0 = no effect, 100 = complete control), Bermudagrass (bermudagrass; 62 g ai/ha, preemergence): 90 | Plant response rating, Bermudagrass (bermudagrass; [4]): 100 | Plant response rating, Bermudagrass (bermudagrass; [5]): 100 | Bermudagrass plant response rating (bermudagrass; [12]): 10 | Plant response rating, Bermudagrass (bermudagrass; [18]): 5 | Bermudagrass plant response rating (bermudagrass; Postemergence, 250 g ai/ha, scale 0 to 100): 10 | Bermudagrass plant response rating (bermudagrass; [13]): 100 | Plant response rating, Bermudagrass (bermudagrass; [8]): 0 | Sedge, Umbrella plant response rating [2, 14]: 0 | Sedge, Umbrella plant response rating [2, 15]: 20 | Sedge, Umbrella plant response rating [2, 19]: 50 | Plant response rating, Sedge, Umbrella [2, 17]: 65 | Plant response rating (0 = no effect, 100 = complete control), Ragweed (common ragweed; 62 g ai/ha, preemergence): 60 | Plant response rating, Ragweed (common ragweed; [4]): 85 | Plant response rating, Ragweed (common ragweed; [5]): 100 | Ragweed plant response rating (common ragweed; Postemergence, scale 0 to 100): 85 | Plant response rating, Ragweed (common ragweed; [6]): 5 | Ragweed plant response rating (common ragweed; [7]): 100 | Plant response rating, Ragweed (common ragweed; [8]): 0 | Plant response rating, Morningglory (morningglory [3]; [9]): 10 | Plant response rating, Morningglory (morningglory [3]; [10]): 0 | Morningglory plant response rating (morningglory [3]; [11]): 20 | Morningglory plant response rating (morningglory [3]; [10]): 40 | Rice plant response rating (rice; [14]): 0 | Rice plant response rating (rice; [15]): 35 | Rice plant response rating (rice; [19]): 35 | Plant response rating, Rice (rice; [17]): 75 | Plant response rating (0 = no effect, 100 = complete control), Crabgrass, Large (large crabgrass; 62 g ai/ha, preemergence): 90 | Plant response rating, Crabgrass, Large (large crabgrass; [4]): 95 | Plant response rating, Crabgrass, Large (large crabgrass; [5]): 95 | Crabgrass, Large plant response rating (large crabgrass; Postemergence, scale 0 to 100): 30 | Plant response rating, Crabgrass, Large (large crabgrass; [18]): 5 | Plant response rating, Crabgrass, Large (large crabgrass; [6]): 15 | Crabgrass, Large plant response rating (large crabgrass; [7]): 95 | Plant response rating, Crabgrass, Large (large crabgrass; [8]): 5 | Plant response rating (0 = no effect, 100 = complete control), Lambsquarters (lambsquarters; 62 g ai/ha, preemergence): 100 | Plant response rating, Lambsquarters (lambsquarters; [4]): 100 | Plant response rating, Lambsquarters (lambsquarters; [5]): 100 | Lambsquarters plant response rating (lambsquarters; Postemergence, scale 0 to 100): 90 | Plant response rating, Lambsquarters (lambsquarters; [6]): 90 | Lambsquarters plant response rating (lambsquarters; [7]): 100 | Plant response rating, Lambsquarters (lambsquarters; [8]): 60 | Plant response rating, Barnyardgrass (barnyardgrass; [9]): 70 | Plant response rating, Barnyardgrass (barnyardgrass; [10]): 80 | Barnyardgrass plant response rating (barnyardgrass; [11]): 65 | Barnyardgrass plant response rating (barnyardgrass; [10]): 75 | Plant response rating (0 = no effect, 100 = complete control), Foxtail, Giant (giant foxtail; 62 g ai/ha, preemergence): 70 | Plant response rating, Foxtail, Giant (giant foxtail; [4]): 100 | Plant response rating, Foxtail, Giant (giant foxtail; [5]): 100 | Foxtail, Giant plant response rating (giant foxtail; Postemergence, scale 0 to 100): 40 | Plant response rating, Foxtail, Giant (giant foxtail; [18]): 5 | Plant response rating, Foxtail, Giant (giant foxtail; [6]): 20 | Foxtail, Giant plant response rating (giant foxtail; [7]): 100 | Plant response rating, Foxtail, Giant (giant foxtail; [8]): 0
